Measurements published in BindingDB's records for doi:10.1021/jm00396a028 (Merck Sharp & Dohme Research Laboratories, 1988).

Assay: Displacement of [125I]gastrin from guinea pig gastric glands

Q: With `Cc1nnc2n1-c1ccc(Cl)cc1C(c1ccccc1)=NC2` as the compound, how does the IC50 read?
A: The IC50 was over 100000 nM.

Q: Which IC50 does the source give for `Fc1ccccc1C1=N[C@H](Cc2c[nH]c3ccccc23)c2nncn2-c2ccccc21` [6-(2-Fluoro-phenyl)-4-(1H-indol-3-ylmethyl)-4H-2,3,5,10b-tetraaza-benzo[e]azulene(0.5CHCl3)] here?
A: Its IC50 is 25000 nM.

Q: Which IC50 does the source give for `O=C(NC1N=C(c2ccccc2F)c2ccccc2-n2cnnc21)c1cc2ccccc2[nH]1` (stereo not drawn) [1H-Indole-2-carboxylic acid [6-(2-fluoro-phenyl)-4H-2,3,5,10b-tetraaza-benzo[e]azulen-4-yl]-amide(0.1EtOAc)] here?
A: Its IC50 is 65 nM.

Q: For `O=C(NC1N=C(c2ccccc2F)c2ccccc2-n2cnnc21)c1ccc(Cl)cc1` (stereo not drawn) [4-Chloro-N-[6-(2-fluoro-phenyl)-4H-2,3,5,10b-tetraaza-benzo[e]azulen-4-yl]-benzamide], which IC50 is on record?
A: Its IC50 is 2400 nM.

Q: With `Cc1nnc2n1-c1ccc(Cl)cc1C(c1ccccc1Cl)=NC2` [Halcion] as the compound, how does the IC50 read?
A: Its IC50 is over 100000 nM.

Q: For `O=C(NC1N=C(c2ccccc2F)c2ccccc2-n2cnnc21)OCc1ccccc1` (stereo not drawn) [[6-(2-Fluoro-phenyl)-4H-2,3,5,10b-tetraaza-benzo[e]azulen-4-yl]-carbamic acid benzyl ester], which IC50 is on record?
A: The IC50 was 3000 nM.

Q: With `O=C(Nc1ccc(Cl)cc1)NC1N=C(c2ccccc2)c2ccccc2-n2cnnc21` (stereo not drawn) [1-(4-Chloro-phenyl)-3-(6-phenyl-4H-2,3,5,10b-tetraaza-benzo[e]azulen-4-yl)-urea] as the compound, how does the IC50 read?
A: The IC50 was 380 nM.

Q: Which IC50 does the source give for `Cc1nnc2n1-c1ccccc1C(c1ccccc1)=NC2NC(=O)Nc1ccc(Cl)cc1` (stereo not drawn) [1-(4-Chloro-phenyl)-3-(1-methyl-6-phenyl-4H-2,3,5,10b-tetraaza-benzo[e]azulen-4-yl)-urea] here?
A: The IC50 was 380 nM.

Q: Which IC50 does the source give for `Fc1ccccc1C1=N[C@H](Cc2c[nH]c3ccccc23)c2nnc(C(Cl)(Cl)Cl)n2-c2ccccc21` [6-(2-Fluoro-phenyl)-4-(1H-indol-3-ylmethyl)-1-trichloromethyl-4H-2,3,5,10b-tetraaza-benzo[e]azulene(0.5CHCl3)] here?
A: The IC50 was over 100000 nM.

Q: For `O=C(NC1N=C(c2ccccc2)c2ccccc2-n2cnnc21)OCc1ccccc1` (stereo not drawn) [(6-Phenyl-4H-2,3,5,10b-tetraaza-benzo[e]azulen-4-yl)-carbamic acid benzyl ester(0.25EtOAc)], which IC50 is on record?
A: Its IC50 is 4800 nM.

Q: With `Cc1nnc2n1-c1ccccc1C(c1ccccc1F)=NC2NC(=O)c1cc2ccccc2[nH]1` (stereo not drawn) [1H-Indole-2-carboxylic acid [6-(2-fluoro-phenyl)-1-methyl-4H-2,3,5,10b-tetraaza-benzo[e]azulen-4-yl]-amide(0.2EtOAc)] as the compound, how does the IC50 read?
A: Its IC50 is 7 nM.

Q: For `Fc1ccccc1C1=N[C@H](Cc2c[nH]c3ccccc23)c2nnc(-c3ccccc3)n2-c2ccccc21` [6-(2-Fluoro-phenyl)-4-(1H-indol-3-ylmethyl)-1-phenyl-4H-2,3,5,10b-tetraaza-benzo[e]azulene(0.55CHCl3)], which IC50 is on record?
A: Its IC50 is over 100000 nM.

Q: Which IC50 does the source give for `CN(C)Cc1nnc2n1-c1ccccc1C(c1ccccc1F)=N[C@@H]2Cc1c[nH]c2ccccc12` [[6-(2-Fluoro-phenyl)-4-(1H-indol-3-ylmethyl)-4H-2,3,5,10b-tetraaza-benzo[e]azulen-1-ylmethyl]-dimethyl-amine(0.22CHCl3)] here?
A: Its IC50 is 60000 nM.
